For assay [1], the system named is intracellular Ca2+ in PN cells. The assay can be described thus: Fura-2 Ca2+ imaging assay. The class given is cell-based, mouse. To be noted: VX-809 10 μM 16 h. As for the experimental part:
FIG. 5A, FIG. 5B, FIG. 5C, FIG. 5D, FIG. 5E, and FIG. 5F show intracellular Ca2+ (F340/F380) levels obtained by ratiometric Fura-2 AM analysis of PN cells treated with VX-809 (10 μM) for 16 h. (FIG. 5A) Representative traces of intracellular Ca2+ release in response to ATP (100 μM) in PN cells and cells treated with VX-809 (10 μM). (FIG. 5B, FIG. 5C) Graphs summarizing resting calcium levels (FIG. 5B) and the average amplitude of Ca2+ release (FIG. 5C) in response to ATP. (FIG. 5D) Representative traces of ER Ca2+ release in response to thapsigargin (4 μM) in PN cells treated with VX-809. (FIG. 5E, FIG. 5F) Resting calcium levels (FIG. 5E) and the average amplitude of Ca2+ release (FIG. 5F) in response to thapsigargin. Amplitude was measured as the […] of the signal base to peak Δf/f. Significance between the two groups was analyzed using Student's t-test, n=4-5). *P<0.05, ***P<0.001.
Ca^2+-dependent signal transduction is associated with cyst formation (26), (29). […] To address the effect of VX-809 on this Ca^2+ release, the cells were treated with thapsigargin, a specific inhibitor of the ER Ca^2+-ATPase which, when applied, allows Ca^2+ to leak out of the ER through independent Ca^2+-permeable pathways (33). A small effect of VX-809 on resting Ca^2+ was observed.
On Day 5 of cell culture, the cells were loaded with the cell-permeant acetoxymethyl (AM) ester of the calcium indicator fura-2 (fura-2/AM) at 37° C. for 90 min. Measurements were made on a Zeiss inverted microscope equipped with a Sutter Lambda 10-2 controller and filter wheel assembly. For ATP stimulation experiments, the cells were exposed to 100 μM ATP diluted in the imaging buffer. A Zeiss FluorArc mercury lamp was used to excite the cells at 340 and 380 nm, and the emission response was measured at 510 nm. Cell fluorescence was measured in response to excitation for 1000 ms at 340 nm and 200 ms at 380 nm once every 4 s. Image acquisition, image analysis, and filter wheel control were performed with IPLab software (see (25)).

For another assay, the system named is Hsp90. The assay can be described thus: Western blot of Hsp90 in kidney tissue lysates. Format: in vivo, mouse. To be noted: cyst induced pkd−/− mice, VX-809 30 mg/kg BW. The method, then:
FIG. 7A, FIG. 7B, FIG. 7C, FIG. 7D, FIG. 7E, and FIG. 7F show chaperone expression is altered in mice by VX-809. (FIG. 7A-FIG. 7B) Representative Western blot images of HSP27, 70, 90 and HSP40 in lysates of kidney tissue from no cyst induced (ND), cyst induced with Doxycycline (D) or cyst induced pkd−/− mice treated with VX-809 (D+VX-809) 30 mg/kg BW. (FIG. 7C, FIG. 7D, FIG. 7E, and FIG. 7F) Columns represent averages±standard errors of HSP27, 70, 90 and HSP40 expression. Data were analyzed by non-parametric t-test. n=4 for each treated and control groups. Black lines between lanes represent representative experiments from the same gel. *P<0.05; **P<0.01; To facilitate their growth in the kidney, cysts have developed an altered network of proteins that most likely serves to protect them from stress (34). Next, it was determined whether VX-809 would alter the levels of Hsps in pkd−/− mice and in PN cells. […] Hsp 27, 70 and 90 are all elevated in cystic kidneys compared to normal controls. […] There is no change in Hsp 40. […] Both sets of data are consistent with an alteration in the heat shock response to cyst growth.
A general note: Immunoblotting shows a protein as a band on a membrane.

The test system of another assay is AC6. The assay can be described thus: Western blot of adenylyl cyclase 6 expression. The class given is cell-based, mouse. Particulars: PN cells treated with VX-809. As for the experimental part: FIG. 4A, FIG. 4B, FIG. 4C, FIG. 4D, and FIG. 4E show (FIG. 4A-FIG. 4B) cAMP levels are reduced by VX-809. (FIG. 4A) cAMP levels in mouse tissue were reduced by VX-809. The kidney samples (n=6) analyzed were taken from those depicted in FIG. 1. (FIG. 4B) Confluent PN and PH cells were treated with VX-809 (10 μM) or DMSO for 16 h and then treated with forskolin (100 μM) for 30 min before the cells were harvested for the assay. Columns represent means±SEM. Statistical analysis was performed using a two-tailed Student's t-test. Each set of data is from three individual wells; Note that resting cAMP is greater in PN vs PH cells as previously shown (25). Also note that forskolin caused a large increase in cAMP. A smaller increase occurred with IBMX. However, the increase induced by forskolin alone was similar to that by IBMX plus forskolin. […] (FIG. 4C, FIG. 4D, and FIG. 4E) Adenylyl cyclase expression. (FIG. 4C) Western blot showing the expression of adenylyl cyclase (AC) 6 and AC3 in treated and control PN cells. (FIG. 4D-FIG. 4E) Columns represent means±SEM of the AC3 and AC6 expression. The data were analyzed by non-parametric t-test. The experiment was repeated four times. For all graphs, *P<0.05, **P<0.01, and ***P<0.001;
There are two classes of adenylyl cyclases that are regulated by intracellular Ca^2+: one class is activated, and the other inhibited. […]

These results are taken from patent US20200289482A1, “CYSTIC FIBROSIS TRANSMEMBRANE CONDUCTANCE REGULATOR MODULATORS FOR TREATING AUTOSOMAL DOMINANT POLYCYSTIC KIDNEY DISEASE” (The Johns Hopkins University, priority 2017, published 2020).

lumacaftor [VX-809]: the “resting Ca2+” value in assay [1] is “small reduction in resting Ca^2+”. Besides, in assay [1] (ATP 100 μM), the “intracellular Ca2+ movement in response to ATP” value is recorded as “no effect on intracellular Ca^2+ movement in response to ATP”. The “thapsigargin-induced release of Ca2+ from the ER” value in assay [1] (thapsigargin 4 μM) is reported as “dramatically reduced the thapsigargin-induced release of Ca^2+ from the ER”. In addition, the “Hsp90 expression in kidneys” value with Hsp90 is reported as “significantly less expression”. Besides, the “AC6 regulation (expression)” value with AC6 is given as “not AC6”.
